Measurements: PubChem BioAssay AID1963848 (Molecular Pharmacology Branch, DTP, NCI, 2024)

Tested on: 379773-124-R-J2-PDC spheroid viability
Experiment: Anticancer human tumor 379773-124-R-J2-PDC patient-derived endometrial carcinoma cell line growth inhibition [POLQ]
Conditions: spheroids with HUVEC and MSC; for IC50: curve of first compound; for viability, T/C: stronger effect = lower value
Description: Multicellular complex tumor spheroid response to Polymerase (POL) inhibitors (novobiocin, ART-558, RP6685) in combination with a variety of drugs and investigational agents in selected tumor cell lines
The POL inhibitors (novobiocin, ART-558, and RP6685) were evaluated both individually and in combination with standard of care and investigational anticancer small molecules within a complex spheroid model of solid tumors. . Complex spheroids include a stromal component modeled by human endothelial cells (HUVEC) and fibroblasts modeled by human mesenchymal stem cells (MSCs). The concentration ranges selected for each drug and investigational agent were based upon clinically achievable concentrations if the clinical Cmax of the agent was known.
Compounds. The drugs and investigational agents: novobiocin (NSC847541), ART-558 (NSC835418), RP-6685 (NSC848927), peposertib (NSC802822), ceralasertib (NSC780249), elimusertib (NSC800525), camonsertib (NSC841442), AZD-1390 (NSC803789), olaparib (NSC753686), talazoparib (NSC767125), rucaparib (NSC756644), sotorasib (NSC818433), MRTX-1133 (NSC836407), SN-38 (NSC673596), topotecan (NSC609699), epotoside (NSC141540), doxorubicin (NSC123127), gemcitabine (NSC613327), 5-fluorouracil (NSC19893), paclitaxel (NSC125973), vemurafenib (NSC761431), MSA-2 (NSC828583), SN-011 (NSC837082), adavosertib (NSC754352), prexasertib (NSC758257), carboplatin (NSC241240) and oxaliplatin (NSC266046), were obtained from the National Cancer Institute (NCI) Developmental Therapeutics Program Chemical Repository (21). The FDA-approved anticancer drug set is available from the Developmental Therapeutics Program at https://dtp.cancer.gov/organization/dscb/obtaining/. […] The stock solutions were prepared in dimethyl sulfoxide (DMSO, Sigma-Aldrich, St. Louis, MO, cat. D2650), except for the platinum compounds which were prepared in saline (Quality Biological, Gaithersburg, MD, cat. 114-055-101), at 800-fold the tested concentration and stored at -70 degrees C prior to their use. All drugs and investigational agents were tested over a range starting from a high concentration at or near the clinical Cmax and decreasing in half-log increments. If the clinical Cmax for an agent had not been determined, the highest concentration tested was 10 microM, except for SN-38, which was tested at a high concentration of 1 microM.
Cell Culture. All cells were maintained in an incubator at 37 degrees C and 5% CO2 with 95% humidity. The PDC lines were cultured according to standard operating procedures established by the NCI PDMR (https://pdmr.cancer.gov). Table 3 of the manuscript, lists the cell lines along with the number of the three cell types plated to form the mct-spheroids and media for tumor cell growth. After thawing, all PDC lines, except 997537-175-T-J1-PDC and 415267-285-R-J2-PDC, were cultured in Matrigel-coated flasks prepared with a working solution of 1X Ham's F-12 nutrient mix, without supplementation (Thermo Fisher Scientific, cat. 11765054), 100 U/mL penicillin-streptomycin (Thermo Fisher Scientific, cat. 15140122), and 2.5% Matrigel (Corning Inc., Corning, NY, cat. 354248) for the first three passages. The two PDC lines 997537-175-T-J1-PDC and 415267-285-R-J2-PDC were cultured on uncoated flasks. The 857933-349-R-J2-PDC line was cultured in 6C/Colon 1B media containing advanced DMEM/F-12 (Thermo Fisher Scientific, cat. 12634028), 10 mM HEPES (Thermo Fisher Scientific, cat. 15630080), 1X GlutaMAX supplement (Thermo Fisher Scientific, cat. 35050061), 0.1 mg/mL primocin (InvivoGen, San Diego, CA, cat. ant-pm-2), 10% defined fetal bovine serum, heat inactivated (HyClone Laboratories Inc., Logan, UT, cat. SH30070.03HI), 50% L-WRN conditioned media (ATCC, cat. CRL-3276), 1.25 mM N-Acetyl-L-cysteine (Sigma-Aldrich, cat. A9165), 10 mM nicotinamide (Sigma-Aldrich, cat. N0636), 1X B-27 supplement (Thermo Fisher Scientific, cat. 17504044), 1X N-2 supplement (Thermo Fisher Scientific, cat. […]

[1] = second compound 0.0316 µM, first compound 0.00316 µM
[2] = second compound 0.0316 µM, first compound 0.01 µM
[3] = second compound 0.0316 µM, first compound 0.0316 µM
[4] = second compound 0.0316 µM, first compound 0.1 µM
[5] = second compound 0.0316 µM, first compound 0.316 µM
[6] = second compound 0.0316 µM, first compound 1 µM
[7] = second compound 0.1 µM, first compound 0.00316 µM
[8] = second compound 0.1 µM, first compound 0.01 µM
[9] = second compound 0.1 µM, first compound 0.0316 µM
[10] = second compound 0.1 µM, first compound 0.1 µM
[11] = second compound 0.1 µM, first compound 0.316 µM
[12] = second compound 0.1 µM, first compound 1 µM
[13] = second compound 0.316 µM, first compound 0.00316 µM
[14] = second compound 0.316 µM, first compound 0.01 µM
[15] = second compound 0.316 µM, first compound 0.0316 µM
[16] = second compound 0.316 µM, first compound 0.1 µM
[17] = second compound 0.316 µM, first compound 0.316 µM
[18] = second compound 0.316 µM, first compound 1 µM
[19] = second compound 1 µM, first compound 0.00316 µM
[20] = second compound 1 µM, first compound 0.01 µM
[21] = second compound 1 µM, first compound 0.0316 µM
[22] = second compound 1 µM, first compound 0.1 µM
[23] = second compound 1 µM, first compound 0.316 µM
[24] = second compound 1 µM, first compound 1 µM
[25] = second compound 3.16 µM, first compound 0.00316 µM
[26] = second compound 3.16 µM, first compound 0.01 µM
[27] = second compound 3.16 µM, first compound 0.0316 µM
[28] = second compound 3.16 µM, first compound 0.1 µM
[29] = second compound 3.16 µM, first compound 0.316 µM
[30] = second compound 3.16 µM, first compound 1 µM
[31] = second compound 10 µM, first compound 0.00316 µM
[32] = second compound 10 µM, first compound 0.01 µM
[33] = second compound 10 µM, first compound 0.0316 µM
[34] = second compound 10 µM, first compound 0.1 µM
[35] = second compound 10 µM, first compound 0.316 µM
[36] = second compound 10 µM, first compound 1 µM
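Also: spheroids exposed to drugs for seven days before readout.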
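For viability, T/C in this document: percent viability relative to DMSO vehicle control taken as 100%.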

C=CCn1c(=O)c2cnc(Nc3ccc(N4CCN(C)CC4)cc3)nc2n1-c1cccc(C(C)(C)O)n1 + COC1C(OC(N)=O)C(O)C(Oc2ccc3c(O)c(NC(=O)c4ccc(O)c(CC=C(C)C)c4)c(=O)oc3c2C)OC1(C)C
IC50 (second compound 0.0316 µM): 453 nM | IC50 (second compound 0.1 µM): 425 nM | IC50 (second compound 0.316 µM): 354 nM | IC50 (second compound 1 µM): 487 nM | IC50 (second compound 3.16 µM): 472 nM | IC50 (second compound 10 µM): 436 nM | viability, T/C [1]: 84.1% | viability, T/C [2]: 74.3% | viability, T/C [3]: 89.5% | viability, T/C [4]: 79.7% | viability, T/C [5]: 71.9% | viability, T/C [6]: 1.84% | viability, T/C [7]: 82.8% | viability, T/C [8]: 73.7% | viability, T/C [9]: 85.3% | viability, T/C [10]: 81.7% | viability, T/C [11]: 66.2% | viability, T/C [12]: 3.04% | viability, T/C [13]: 87.9% | viability, T/C [14]: 74.8% | viability, T/C [15]: 88.3% | viability, T/C [16]: 88% | viability, T/C [17]: 55.3% | viability, T/C [18]: 2.39% | viability, T/C [19]: 80.6% | viability, T/C [20]: 89.8% | viability, T/C [21]: 78.3% | viability, T/C [22]: 88.8% | viability, T/C [23]: 78.2% | viability, T/C [24]: 2.58% | viability, T/C [25]: 85.6% | viability, T/C [26]: 86.9% | viability, T/C [27]: 79.6% | viability, T/C [28]: 77.5% | viability, T/C [29]: 74.8% | viability, T/C [30]: 3.31% | viability, T/C [31]: 77.5% | viability, T/C [32]: 66.6% | viability, T/C [33]: 103% | viability, T/C [34]: 81% | viability, T/C [35]: 68.6% | viability, T/C [36]: 2.21%

COc1cccc(OCCCN)c1-c1cc(Nc2cnc(C#N)cn2)n[nH]1 + COC1C(OC(N)=O)C(O)C(Oc2ccc3c(O)c(NC(=O)c4ccc(O)c(CC=C(C)C)c4)c(=O)oc3c2C)OC1(C)C
IC50 (second compound 0.0316 µM): 4.43 nM | IC50 (second compound 0.1 µM): 3.53 nM | IC50 (second compound 0.316 µM): 3.5 nM | IC50 (second compound 1 µM): 4.46 nM | IC50 (second compound 3.16 µM): 3.76 nM | IC50 (second compound 10 µM): 3.81 nM | viability, T/C [1]: 69.1% | viability, T/C [2]: 3.94% | viability, T/C [3]: 2.78% | viability, T/C [4]: 2% | viability, T/C [5]: 1.77% | viability, T/C [6]: 1.34% | viability, T/C [7]: 54.7% | viability, T/C [8]: 5.02% | viability, T/C [9]: 2.47% | viability, T/C [10]: 1.87% | viability, T/C [11]: 2.26% | viability, T/C [12]: 1.32% | viability, T/C [13]: 54.3% | viability, T/C [14]: 4.98% | viability, T/C [15]: 2.58% | viability, T/C [16]: 1.9% | viability, T/C [17]: 1.7% | viability, T/C [18]: 0.97% | viability, T/C [19]: 69.2% | viability, T/C [20]: 5.09% | viability, T/C [21]: 1.91% | viability, T/C [22]: 2% | viability, T/C [23]: 1.74% | viability, T/C [24]: 1.47% | viability, T/C [25]: 57.9% | viability, T/C [26]: 5.31% | viability, T/C [27]: 2.5% | viability, T/C [28]: 2.18% | viability, T/C [29]: 1.81% | viability, T/C [30]: 1.54% | viability, T/C [31]: 58.8% | viability, T/C [32]: 4.41% | viability, T/C [33]: 2.84% | viability, T/C [34]: 2.3% | viability, T/C [35]: 3.07% | viability, T/C [36]: 1.39%
